# Assay results: patent publication US20160044922A1, “Control of Ectoparasites” (priority 2014, published 2016)
# Key:
# beneficial mite species = settings: under normal use; cited from earlier work
# tobacco budworm = settings: cited from earlier work
# [1] = rat versus trout liver microsomes; cited from earlier work
# fleas = assay: Activity on fleas; settings: in vivo
# mosquito larvae = settings: cited from earlier work
# southern corn rootworm = settings: cited from earlier work
# cabbage looper = settings: cited from earlier work
# tobacco bud worm = settings: cited from earlier work
# cotton aphids = settings: cited from earlier work
# [2] = system: Larval-stage lone star ticks (Amblyomma americanum); assay: Dip survival assay, A. americanum larvae; assay type: in vivo; settings: larvae submerged 30 minutes, counted after 24 hours at 25° with 95% humidity
# Procedure: Activity Against A. Americanum Larvae in a Dip Survival Assay
# Compound 1 from a dimethyl sulfoxide (DMSO) stock or 2% DMSO alone is dispensed into a round-bottom 96-well plate and mixed with aqueous buffer containing 1% ethanol, 0.2% Triton X100. […] Larval-stage lone star ticks (Amblyomma americanum) are dispensed into the wells containing the Compound and submerged for 30 minutes. The ticks are subsequently dispensed into a tissue biopsy bag, which is allowed to dry for 1 hour. After drying, the bags are incubated at 25° with 95% humidity for 24 hours and the number of live or dead larvae are enumerated. The observations made illustrated in the following table.
# [3] = system: predatory mites and many beneficial insects; settings: under field conditions; cited from earlier work
# ticks = assay: Activity on ticks; settings: in vivo
# fish, mammals = settings: fish versus mammals; cited from earlier work
SMILES,toxicity to beneficial mite species (beneficial mite species),activity (tobacco budworm),degradation by liver microsomes [1],activity on fleas (fleas),LC50 (mosquito larvae),activity (southern corn rootworm),LC50 (cabbage looper),metabolism by the tobacco bud worm (tobacco bud worm),LC50 (cotton aphids),Number of live/dead A. americanum larvae 24 hours after treatment ([2]; 0.01% compound),Number of live/dead A. americanum larvae 24 hours after treatment ([2]; 0.05% compound),impact on predatory mites and many beneficial insects [3],activity on ticks (ticks),"toxicity (fish, mammals)"
"CC(C)(C)c1ccc(CCOc2ncnc3ccccc23)cc1 [Formula I, 4-tert-butylphenethyl quinazolin-4-yl ether]",relatively low toxicity,greater than 400 ppm,degraded more extensively by rat liver microsomes than by trout liver microsomes,active,0725 ppm,greater than 400 ppm,188 ppm,extensively metabolized,2.6 ppm,0/52,0/48,minimal impact,active,higher toxicity of the compound to fish than to mammals
"CCc1nn(C)c(C(=O)NCc2ccc(C(C)(C)C)cc2)c1Cl [Formula II, 4-chloro-5-ethyl-2-methyl-N-[(4-tert-butylphenyl)methyl]pyrazole-3-carboxamide]",relatively low toxicity,,,,,,,,,,,minimal impact,,
"CC(C)(C)c1ccc(CSc2cnn(C(C)(C)C)c(=O)c2Cl)cc1 [pyridaben, 4-chloro-2-tert-butyl-5-[(4-tert-butylphenyl)methylsulfanyl]pyridazin-3-one]",,,,,,,,,,,,minimal impact,,
